Measurements taken from patent US8211714B2, “Characterization of molecules” (Analiza, Inc., priority 2001, dated 2012).

Legend:
[1] = target: T1, hen egg white lysozyme (Gallus gallus, UniProt P00698); experiment: Partitioning of hen egg white lysozyme and its mixtures with binding partners in aqueous two-phase systems; format: physicochemical; details: for Partition coefficient K-value, Dex-PEG system: pH 7.4; for Partition coefficient K-value, Dex-Ficoll system / Partition coefficient K-value, Dex-Ficoll-Na2SO4 system: pH 8.6
T1 construct: Lysozyme from hen egg white; purchased Sigma Chemical Company (St. Louis, Mo., USA); host or cells: isolated from hen egg white
T1 sequence (P00698 19-147): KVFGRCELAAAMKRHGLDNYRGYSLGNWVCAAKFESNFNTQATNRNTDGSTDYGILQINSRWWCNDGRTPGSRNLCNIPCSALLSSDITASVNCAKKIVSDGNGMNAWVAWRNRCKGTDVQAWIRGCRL
Description: Glucose and N-acetyl-D-glucosamine were purchased from USB Corporation (Cleveland, Ohio, USA) and used without further purification. Stock solutions of lysozyme in water were prepared at a concentration of 5.0 mg/ml. N,N′-Diacetylchitobiose and N,N′,N″-triacetylchitotriose were dissolved at a concentration of 10 mg/ml and mixed with the protein solution in ratios appropriate to provide protein:ligand molecular ratios of 1:1. Stock solutions of lysozyme and of the lysozyme mixtures with ligands were added to an aqueous two-phase system as described below.

[2] = target: T2, bovine β-lactoglobulin (Bos taurus, UniProt P02754); experiment: Partitioning of bovine β-lactoglobulin with binding partners in aqueous two-phase systems; details: for Partition coefficient K-value, Dex-Ficoll system: 8.88 wt.% Dextran-64, 12.86 wt.% Ficoll-400, 0.01 M sodium phosphate buffer pH 8.6; for Partition coefficient K-value, Dex-Ficoll system / Partition coefficient K-value, Dex-Ficoll-NaSCN system / Partition coefficient K-value, Dex-PEG system: protein:binding partner 1:1; for Partition coefficient K-value, Dex-Ficoll-NaSCN system: 10.98 wt.% Dextran-64, 15.95 wt.% Ficoll-400, […] NaSCN, 0.01 M sodium phosphate buffer pH 8.6; for Partition coefficient K-value, Dex-PEG system: 12.33 wt.% Dextran-64, 6.05 wt.% PEG-6000, 0.15M NaCl, 0.01 M sodium phosphate buffer pH 7.4; for Partition coefficient K-value, PEG/Phosphate system: 13.75 wt.% PEG-600, 21.00 wt.% sodium/potassium phosphate buffer pH 6.8, protein:binding partner molecular ratio 1:1; for effect of binding on the protein K-value: all the systems used
T2 sequence (P02754 17-178): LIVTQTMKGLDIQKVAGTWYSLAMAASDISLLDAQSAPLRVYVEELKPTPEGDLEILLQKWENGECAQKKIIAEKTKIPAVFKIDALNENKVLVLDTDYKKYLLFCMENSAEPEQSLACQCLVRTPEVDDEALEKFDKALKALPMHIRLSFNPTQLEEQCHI
Description: β-Lactoglobulin from bovine milk, retinol, nitrophenyl phosphate and bromoethanol were purchased from Sigma Chemical Company (St. Louis, Mo., USA) and used without further purification. A stock solution of β-lactoglobulin in water was prepared at a concentration of 10.0 mg/ml. Nitrophenyl phosphate, retinol, and bromoethanol were dissolved in the protein stock solutions in the molecular ratios as indicated in Table 1. These protein/binding partner solutions were subjected to partitioning in a series of different aqueous two-phase systems, also as indicated below.
The aqueous two-phase system contained 13.75 wt. % PEG-600 (molecular weight of about 600) and 21.00 wt. % sodium/potassium phosphate buffer (pH 6.8). Each system was prepared by mixing the appropriate amounts of stock polymer and buffer solutions dispensed by liquid handling workstation Hamilton ML-2200 into a 1.2 mL microtube. A total volume of 800 μL was dispensed to the microtube. A varied amount (40, 80, 120, 160, and 200 μL) of the β-lactoglobulin solution or that of a mixture of a given ratio and the corresponding amount (160, 120, 80, 40, and 0.0 μl) of water were added to a system. The ratio between the volumes of the two phases of each system of a final volume of 1.00 mL was as 1:1. The system was shaken vigorously and then centrifuged for 30 min. at about 4000 rpm to speed resolution of the two phases. Tubes were then taken from the centrifuge, aliquots of a given volume (100 μl for direct spectrophotometric analysis and 150 μl for fluorescence analysis) from the top and the bottom phases were withdrawn in duplicate. Each aliquot was diluted, mixed with appropriate reagents, and used for analyzed as described below.
The other aqueous two-phase system contained 8.88 wt. % Dextran-64 (molecular weight of about 64,000), 12.86 wt. % Ficoll-400 (molecular weight of about 400,000) and 0.01 M sodium phosphate buffer (pH 8.6). Each system was prepared by mixing the appropriate amounts of stock polymer and buffer solutions dispensed by liquid handling workstation Hamilton ML-2200 into a microtube of a total volume of 1.2 mL up to a total volume of a system of 820 μL. A varied amount (40, 80, 120, and 160 μl) of the β-lactoglobulin solution or that of a mixture of a given ratio and the corresponding amount (140, 100, 60, and 20 μl) of water were added to each system. The ratio between the volumes of the two phases of each system of a final volume of 1.00 mL was as 1:1. The system was shaken vigorously and centrifuged for 30 min. at about 4000 rpm to speed the resolution of the phases. Tubes were taken out of the centrifuge, and aliquots of a given volume (100 μl for direct spectrophotometric analysis and 150 μl for fluorescence analysis) from the top and the bottom phases were withdrawn in duplicate and each diluted and mixed with appropriate reagents as indicated below and used for further analysis performed as described below.
The other aqueous two-phase system contained 10.98 wt. % Dextran-64 (molecular weight of about 64,000), 15.95 wt. % Ficoll-400 (molecular weight of about 400,000), 0.24M NaSCN, and 0.01 M sodium phosphate buffer (pH 8.6). Each system was prepared by mixing the appropriate amounts of stock polymer, salt, and buffer solutions dispensed by liquid handling workstation Hamilton ML-2200 into a microtube of a total volume of 1.2 mL up to a total volume of a system of 920 μL. A varied amount (20, 40, 60, and 80 μl) of the β-lactoglobulin solution or that of a mixture of a given ratio and the corresponding amount (60, 40, 20, and 0 μl) of water were added to a system. The ratio between the volumes of the two phases of each system of a final volume of 1.00 mL was as 1:1. The system was vigorously shaken and centrifuged for 30 min. at about 4000 rpm in a centrifuge with a bucket rotor to speed the phase settling.

[3] = Partitioning of human, bovine and porcine insulin in aqueous two-phase systems; format: physicochemical; details: pH 7.4
Description: Human recombinant insulin was purchased from ICN Biomedicals Inc. (Aurora, Ohio, USA), bovine and porcine insulins were purchased from Calbiochem Corporation (San Diego, Calif., USA) and used without further purification. […] Stock solutions of all insulins in 0.009M HCl were prepared and titrated with 0.01M NaOH to pH 6.0 with the final protein concentration of ca. 1.0 mg/ml. Stock solution of human insulin, stock solution of porcine insulin, and stock solution of bovine insulin were added to an aqueous two-phase system as described below.

| Molecule | Partition coefficient K-value, PEG-3350-Phosphate system [1] | Partition coefficient K-value, Dex-PEG system [1] | Partition coefficient K-value, Dex-Ficoll system [1] | Partition coefficient K-value, Dex-Ficoll-Na2SO4 system [1] | Partition coefficient K-value, Dex-Ficoll system [2] | Partition coefficient K-value, Dex-Ficoll-NaSCN system [2] | Partition coefficient K-value, Dex-PEG system [2] | Partition coefficient K-value, PEG/Phosphate system [2] | also measured |
| --- | --- | --- | --- | --- | --- | --- | --- | --- | --- |
| CC(=O)N[C@H]1C(O)O[C@H](CO)[C@@H](O)[C@@H]1O (stereo partly drawn) [N-Acetyl-D-glucosamine] | 2.402 ± 0.002 | 2.860 ± 0.035 | 0.818 ± 0.003 | 1.214 ± 0.010 | – | – | – | – | – |
| CC(=O)N[C@H]1[C@H](O[C@H]2[C@H](O)[C@@H](NC(C)=O)C(O)O[C@@H]2CO)O[C@H](CO)[C@@H](O[C@@H]2O[C@H](CO)[C@@H](O)[C@H](O)[C@H]2NC(C)=O)[C@@H]1O (stereo partly drawn) [N,N′,N″-Triacetylchitotriose] | 0.461 ± 0.006 | 2.033 ± 0.052 | 0.803 ± 0.004 | 1.106 ± 0.007 | – | – | – | – | – |
| O=[N+]([O-])c1ccc(OP(=O)(O)O)cc1 | – | – | – | – | 0.823 ± 0.018 | 0.420 ± 0.001 | 0.103 ± 0.001 | 1.714 ± 0.012 | effect of binding on the protein K-value [2]: decreases |
| OCCBr | – | – | – | – | 0.848 ± 0.009 | 0.486 ± 0.005 | 0.183 ± 0.001 | 1.904 ± 0.013 | effect of binding on the protein K-value [2]: decreases |
| CC(=O)N[C@H]1[C@H](O[C@H]2[C@H](O)[C@@H](NC(C)=O)C(O)O[C@@H]2CO)O[C@H](CO)[C@@H](O)[C@@H]1O (stereo partly drawn) [N,N′-Diacetylchitobiose] | 1.311 ± 0.013 | 2.563 ± 0.032 | 0.826 ± 0.001 | 1.177 ± 0.009 | – | – | – | – | – |
| hen egg white lysozyme: Lysozyme from hen egg white (Sigma); protein alone, row 'None' of Table 2 | 2.278 ± 0.006 | 2.728 ± 0.010 | 0.890 ± 0.007 | 1.239 ± 0.008 | – | – | – | – | – |
| Porcine Insulin: porcine insulin (Calbiochem); differs from human insulin by Ala in position B30 | – | – | – | – | – | – | – | – | Partition coefficient K-value, Dex-Ficoll-NaCl—NaPB [3]: 1.350 ± 0.015; Partition coefficient K-value, Dex-Ficoll-NaSCN—NaPB [3]: 0.911 ± 0.006; Partition coefficient K-value, Dex-PEG-NaClO4—NaPB [3]: 0.656 ± 0.020; Partition coefficient K-value, Dex-PEG-NaSCN—NaPB [3]: 1.514 ± 0.019 |
| Retinol acetate | – | – | – | – | 0.812 ± 0.006 | 0.468 ± 0.002 | 0.196 ± 0.001 | 1.858 ± 0.016 | effect of binding on the K-value of the protein ([2]; Dex-Ficoll system): reduces; effect of binding on the K value of the protein ([2]; PEG-Phosphate, Dex-PEG, and Dex-Ficoll-NaSCN systems): increases |
